Experimental data published in ChEMBL document CHEMBL1126700, “Synthesis and serotonergic activity of 5-(oxadiazolyl)tryptamines: potent agonists for 5-HT1D receptors” (J Med Chem, 1993).

What was measured:
[1] = target: 5-hydroxytryptamine receptor 1D (Sus scrofa, UniProt P79400); experiment: Displacement of radioligand [3H]5-HT binding to 5-hydroxytryptamine 1D receptor in pig caudate membrane; assay type: cell membranes
[2] = Partition coefficient (logD7.4); conditions: octanol/water, pH 7.4
Oryctolagus cuniculus [3] = organism: Oryctolagus cuniculus; experiment: Relative maximum is the relative efficacy for serotonergic activity on rabbit saphenous vein with respect to 1 uM 5-HT; assay type: functional
Oryctolagus cuniculus [4] = organism: Oryctolagus cuniculus; experiment: Serotonergic activity was assessed in vitro on the New Zealand white rabbit saphenous vein preparation; assay type: functional
[5] = target: Serotonin 2 (5-HT2) receptor (Rattus norvegicus, UniProt P30994+P08909+P14842); experiment: isplacement of [3H]DOB from rat cortex homogenate 5-hydroxytryptamine 2 receptor
[6] = target: T1, Serotonin 3 (5-HT3) receptor (Rattus norvegicus, UniProt P35563+Q9JJ16); experiment: Displacement of [3H]-Q-ICS 205-930 from rat cortex homogenate 5-hydroxytryptamine 3 receptor
T1 sequence (P35563 whole entry): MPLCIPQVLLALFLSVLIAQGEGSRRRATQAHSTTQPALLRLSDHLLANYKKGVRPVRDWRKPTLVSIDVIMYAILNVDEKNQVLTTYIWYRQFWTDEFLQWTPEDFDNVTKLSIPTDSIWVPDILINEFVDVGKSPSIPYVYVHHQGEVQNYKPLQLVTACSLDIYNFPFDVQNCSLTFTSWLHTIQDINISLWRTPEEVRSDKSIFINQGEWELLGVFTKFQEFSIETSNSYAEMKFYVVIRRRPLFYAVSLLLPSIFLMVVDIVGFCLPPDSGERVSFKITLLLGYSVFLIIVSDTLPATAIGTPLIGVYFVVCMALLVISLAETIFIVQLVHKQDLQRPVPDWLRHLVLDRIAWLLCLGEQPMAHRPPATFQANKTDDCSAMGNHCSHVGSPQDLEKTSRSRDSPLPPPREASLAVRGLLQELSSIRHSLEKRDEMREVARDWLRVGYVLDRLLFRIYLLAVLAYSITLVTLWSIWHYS
T1 sequence (Q9JJ16 whole entry): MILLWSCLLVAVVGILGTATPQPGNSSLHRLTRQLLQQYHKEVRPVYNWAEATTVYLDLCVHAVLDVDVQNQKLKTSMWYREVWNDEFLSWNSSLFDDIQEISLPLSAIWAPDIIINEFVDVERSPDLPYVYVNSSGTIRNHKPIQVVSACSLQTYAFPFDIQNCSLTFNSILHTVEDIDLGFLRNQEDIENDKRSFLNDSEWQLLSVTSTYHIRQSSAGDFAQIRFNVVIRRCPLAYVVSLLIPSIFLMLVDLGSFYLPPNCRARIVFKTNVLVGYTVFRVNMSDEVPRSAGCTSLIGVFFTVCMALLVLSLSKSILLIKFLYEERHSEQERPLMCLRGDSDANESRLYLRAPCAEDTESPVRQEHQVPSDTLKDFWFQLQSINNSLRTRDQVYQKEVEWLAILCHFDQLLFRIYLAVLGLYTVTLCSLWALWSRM

Oryctolagus cuniculus [7] = organism: Oryctolagus cuniculus; experiment: Relative maximum is the relative efficacy with respect to 1 uM 5-HT; assay type: functional

Sequence of 5-hydroxytryptamine receptor 1D (P79400 whole entry): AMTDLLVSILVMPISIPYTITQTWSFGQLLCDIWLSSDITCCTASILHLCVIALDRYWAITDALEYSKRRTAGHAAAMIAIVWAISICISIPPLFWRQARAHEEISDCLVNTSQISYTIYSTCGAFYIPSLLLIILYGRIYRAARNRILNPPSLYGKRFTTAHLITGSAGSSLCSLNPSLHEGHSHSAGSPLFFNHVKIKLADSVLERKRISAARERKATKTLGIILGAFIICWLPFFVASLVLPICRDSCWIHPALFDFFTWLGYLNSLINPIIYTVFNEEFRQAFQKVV

SMILES	IC50 [1] [nM]	logD [2]	pIC50 [5]	IC50 [6] [nM]	also measured
CNS(=O)(=O)c1ccc(Cc2noc(-c3ccc4[nH]cc(CCN)c4c3)n2)cc1	0.251	0.25	–	–	Relative maximum (Oryctolagus cuniculus [3]): 0.9; EC50 (Oryctolagus cuniculus [4]): 12.6 nM
Cc1noc(CCCc2ccc3[nH]cc(CCN)c3c2)n1	5.01	–	–	–	–
NCCc1c[nH]c2ccc(-c3nc(-c4ccccc4)no3)cc12	79.4	–	–	–	–
CC(=O)Nc1ccc(Cc2noc(Cc3ccc4[nH]cc(CCN)c4c3)n2)cc1	2.51	-0.36	–	–	–
CCc1noc(-c2ccc3[nH]cc(CCN)c3c2)n1	12.6	0.13	–	–	–
COc1ccccc1Cc1noc(-c2ccc3[nH]cc(CCN)c3c2)n1	15.8	1.38	–	–	–
CN(C)CCc1c[nH]c2ccc(-c3nc(N)no3)cc12	79.4	0.2	–	–	–
Cc1noc(-c2ccc3[nH]cc(CCN)c3c2)n1	10	-0.37	5.8	> 10000	Relative maximum (Oryctolagus cuniculus [3]): 1; EC50 (Oryctolagus cuniculus [4]): 251 nM
CS(=O)(=O)Nc1ccc(Cc2noc(Cc3ccc4[nH]cc(CCN)c4c3)n2)cc1	3.16	-0.54	–	–	–
NCCc1c[nH]c2ccc(CCCc3nc(Cc4ccccc4)no3)cc12	1.58	–	–	–	–
NCCc1c[nH]c2ccc(Cc3nc(Cc4ccccc4)no3)cc12	31.6	0.42	–	–	–
CN(C)CCc1c[nH]c2ccc(Cc3nc(-c4ccc(NS(C)(=O)=O)cc4)no3)cc12	10	–	–	–	–
Cc1noc(Cc2ccc3[nH]cc(CCN(C)C)c3c2)n1	50.1	–	5.6	3980	–
CN(C)CCc1c[nH]c2ccc(-c3nc(Cc4ccccc4)no3)cc12	6.31	–	–	–	–
CNS(=O)(=O)Cc1ccc2[nH]cc(CCN(C)C)c2c1	–	-1.17	–	–	–
COc1cccc(Cc2noc(-c3ccc4[nH]cc(CCN)c4c3)n2)c1	1.26	–	–	–	–
Cc1cnc(-c2ccc3[nH]cc(CCN(C)C)c3c2)o1	7.94	–	–	–	–
NCCc1c[nH]c2ccc(CCc3nc(N)no3)cc12	10	-1.51	–	–	–
CN(C)CCc1c[nH]c2ccc(CCc3nc(Cc4ccccc4)no3)cc12	12.6	–	–	–	–
CS(=O)(=O)Nc1ccc(Cc2noc(-c3ccc4[nH]cc(CCN)c4c3)n2)cc1 [L-694247]	0.316	0.25	6.5	> 10000	Relative maximum (Oryctolagus cuniculus [3]): 1; EC50 (Oryctolagus cuniculus [4]): 15.8 nM

SMILES	IC50 [1] [nM]	logD [2]	pIC50 [5]	IC50 [6] [nM]	also measured
CN(C)CCc1c[nH]c2ccc(-c3nc(Cc4ccc(NS(C)(=O)=O)cc4)no3)cc12	1.26	1.25	–	–	–
NCCc1c[nH]c2ccc(CCc3nc(Cc4ccccc4)no3)cc12	5.01	–	6.6	> 10000	–
NCCc1c[nH]c2ccc(Cc3nc(-c4ccccc4)no3)cc12	20	–	–	–	–
CC(=O)NCc1noc(-c2ccc3[nH]cc(CCN)c3c2)n1	20	–	–	–	–
CN(C)CCc1c[nH]c2ccc(Cc3nc(N)no3)cc12	25.1	–	6.4	2510	–
NCCc1c[nH]c2ccc(O)cc12 [SEROTONIN]	10	–	–	–	Relative maximum (Oryctolagus cuniculus [7]): 1
CN(C)CCc1c[nH]c2ccc(Cc3nc(Cc4ccc(NS(C)(=O)=O)cc4)no3)cc12	31.6	0.5	–	–	–
CN(C)CCc1c[nH]c2ccc(CCCc3nc(Cc4ccccc4)no3)cc12	12.6	–	–	–	–
NCCc1c[nH]c2ccc(-c3nc(Cc4ccccc4)no3)cc12	6.31	1.32	5.9	> 10000	–
CNC(=O)c1ccc(-c2noc(-c3ccc4[nH]cc(CCN)c4c3)n2)cc1	0.794	–	–	–	–
NCCc1c[nH]c2ccc(Cc3nc(N)no3)cc12	20	–	6.1	> 10000	EC50 (Oryctolagus cuniculus [4]): 158 nM
NCCc1c[nH]c2ccc(-c3nc(N)no3)cc12	50.1	-0.72	–	–	–
CC(=O)Nc1ccc(Cc2noc(-c3ccc4[nH]cc(CCN)c4c3)n2)cc1	0.501	0.48	6.4	> 10000	Relative maximum (Oryctolagus cuniculus [3]): 1; EC50 (Oryctolagus cuniculus [4]): 12.6 nM
CNC(=O)c1ccc(-c2noc(Cc3ccc4[nH]cc(CCN(C)C)c4c3)n2)cc1	2	1.45	–	–	–
NCCc1c[nH]c2ccc(C(N)=O)cc12	3.98	–	–	–	–
COc1ccc(Cc2noc(-c3ccc4[nH]cc(CCN)c4c3)n2)cc1	0.794	–	6	> 10000	–
NCCc1c[nH]c2ccc(-c3nc(C4CC4)no3)cc12	7.94	0.6	5.6	> 10000	–
Cc1noc(Cc2ccc3[nH]cc(CCN)c3c2)n1	31.6	-1.7	5.5	> 10000	–
CN(C)CCc1c[nH]c2ccc(CCc3nc(N)no3)cc12	12.6	–	6.7	6310	EC50 (Oryctolagus cuniculus [4]): 200 nM
CN(C)CCc1c[nH]c2ccc(Cc3nc(N)ns3)cc12	2	–	6.9	2400	Relative maximum (Oryctolagus cuniculus [3]): 1.1
